# Assay results from ChEMBL document CHEMBL5661943, “ASAP - In vitro antiviral effect” (2024).
# How the values were obtained:
# dengue virus type 2 = experiment: Functional assay to measure dose dependent changes in antiviral-drug inhibitory efficacy against Dengue virus type 2 New Guinea C in Vero E6 miRFP670 cells (cotreated with P-gp inhibitor, CP100356). Cells are treated with antiviral candidates that are serially diluted, following infection, cells are fixed. EC50 is reported via analysis of fluorescence intensity using high-content imager. The …; type: organism-based, Chlorocebus sabaeus, Vero C1008; conditions: Dengue virus; for EC90: P-gp concentration 500 nM, P-gp inhibitor CP100356
# Zika virus = experiment: Functional CPE-based assay to measure dose dependent changes in antiviral-drug inhibitory efficacy against Zika virus MR766 in Vero E6 miRFP670 cells (cotreated with P-gp inhibitor, CP100356). Cells are treated with antiviral candidates that are serially diluted. EC50 is reported via analysis of MTS assay as a readout of CPE. The assay has been performed by KU Leuven.; type: organism-based, Chlorocebus sabaeus, Vero C1008; conditions: for EC90: P-gp concentration 500 nM, P-gp inhibitor CP100356
structure (smiles),measurement,setting,value
O=C(Nc1ccc2c(c1)CNC2)c1cc(Cl)cc2cc[nH]c12,EC50,dengue virus type 2; Vero C1008,2.21 µM
same,EC90,"dengue virus type 2; Vero C1008, Baseline response 0 %, Hill slope -2.776, Maximum measured 94.432 %, Maximum response 100 %, Minimum measured 26.957 %, R squared 0.875",> 3.12 µM
same,EC50,"Zika virus; Zika virus, Vero C1008",1 µM
same,EC90,"Zika virus; Zika virus, Vero C1008, Baseline response 0 %, EC90 CI (lower) 0.797 uM, EC90 CI (upper) 4.564 uM, Hill slope 3.408, Maximum measured 129.449 %, Maximum response 100 %, Minimum measured 8.447 %, R squared 0.85",1.91 µM
O=C(Nc1ccc2c(c1)CNC2)c1cccc2cn[nH]c12,EC50,dengue virus type 2; Vero C1008,46.1 µM
same,EC90,"dengue virus type 2; Vero C1008, Baseline response 0 %, Hill slope -1.364, Maximum measured 96.577 %, Maximum response 100 %, Minimum measured 45.147 %, R squared 0.579",> 50 µM
same,EC50,"Zika virus; Zika virus, Vero C1008",> 50 µM
same,EC90,"Zika virus; Zika virus, Vero C1008, Baseline response 0 %, Hill slope 0.311, Maximum measured 17.727 %, Maximum response 100 %, Minimum measured -4.778 %, R squared 0.076",> 50 µM
NCc1ccc(-c2csc3cc(C(=O)Nc4ccc5c(c4)CNC5)ccc23)cc1,EC50,dengue virus type 2; Vero C1008,> 6.25 µM
same,EC90,"dengue virus type 2; Vero C1008, Baseline response 0 %, Hill slope -0.794, Maximum measured 120.176 %, Maximum response 100 %, Minimum measured 78.099 %, R squared 0.152",> 6.25 µM
same,EC50,"Zika virus; Zika virus, Vero C1008",> 50 µM
same,EC90,"Zika virus; Zika virus, Vero C1008, Maximum measured 6.518 %, Minimum measured 2.745 %",> 50 µM
O=C(Nc1ccc2c(c1)CNC2)c1cccc2c1[C@]1(CCNC1)C(=O)N2,EC50,dengue virus type 2; Vero C1008,> 12.5 µM
same,EC90,"dengue virus type 2; Vero C1008, Maximum measured 172.695 %, Minimum measured 97.519 %",> 12.5 µM
same,EC50,"Zika virus; Zika virus, Vero C1008",> 50 µM
same,EC90,"Zika virus; Zika virus, Vero C1008, Baseline response 0 %, Hill slope 1.1, Maximum measured 3.95 %, Maximum response 100 %, Minimum measured -2.689 %, R squared 0.205",> 50 µM
O=C(Nc1ccc2c(c1)CN[C@H]2C[C@H](O)CO)c1cc(F)cc2[nH]ncc12,EC50,dengue virus type 2; Vero C1008,> 50 µM
same,EC90,"dengue virus type 2; Vero C1008, Baseline response 0 %, Hill slope 0.494, Maximum measured 181.349 %, Maximum response 100 %, Minimum measured 67.92 %, R squared 0.043",> 50 µM
same,EC50,"Zika virus; Zika virus, Vero C1008",> 50 µM
same,EC90,"Zika virus; Zika virus, Vero C1008, Maximum measured 5.346 %, Minimum measured 2.665 %",> 50 µM
O=C(O)Cc1c[nH]c2cc(-c3cc(Cl)cc(NC(=O)OCc4ccccc4)c3)ccc12,EC50,dengue virus type 2; Vero C1008,28.1 µM
same,EC90,"dengue virus type 2; Vero C1008, Baseline response 0 %, Hill slope -3.369, Maximum measured 96.537 %, Maximum response 100 %, Minimum measured 12.115 %, R squared 0.802",> 50 µM
same,EC50,"Zika virus; Zika virus, Vero C1008",> 50 µM
same,EC90,"Zika virus; Zika virus, Vero C1008, Baseline response 0 %, Hill slope 0.295, Maximum measured 15.391 %, Maximum response 100 %, Minimum measured 1.73 %, R squared 0.19",> 50 µM
N#Cc1cccc(-c2nc3c(C(=O)Nc4ccc5c(c4)CNC5)cc(F)cc3[nH]2)c1,EC50,dengue virus type 2; Vero C1008,> 6.25 µM
same,EC90,"dengue virus type 2; Vero C1008, Baseline response 0 %, Hill slope 1.695, Maximum measured 158.102 %, Maximum response 100 %, Minimum measured 53.067 %, R squared 0.44",> 6.25 µM
same,EC50,"Zika virus; Zika virus, Vero C1008",> 50 µM
same,EC90,"Zika virus; Zika virus, Vero C1008, Baseline response 0 %, Hill slope 0.393, Maximum measured 36.291 %, Maximum response 100 %, Minimum measured 0.187 %, R squared 0.325",> 50 µM
O=C(Nc1cc2c(cc1Br)CNC2)c1cc(Cl)cc2[nH]ncc12,EC50,dengue virus type 2; Vero C1008,> 12.5 µM
same,EC90,"dengue virus type 2; Vero C1008, Baseline response 0 %, Hill slope -0.294, Maximum measured 95.105 %, Maximum response 100 %, Minimum measured 44.86 %, R squared 0.086",> 12.5 µM
same,EC50,"Zika virus; Zika virus, Vero C1008",1.53 µM
same,EC90,"Zika virus; Zika virus, Vero C1008, Baseline response 0 %, EC90 CI (lower) 0.641 uM, EC90 CI (upper) 7.527 uM, Hill slope 6.115, Maximum measured 127.201 %, Maximum response 100 %, Minimum measured 6.803 %, R squared 0.89",2.2 µM
CNC(=O)[C@H](Nc1ccc2c(c1)CNC2)c1cc(Cl)cc2[nH]c(-c3ccccc3)nc12,EC50,dengue virus type 2; Vero C1008,> 25 µM
same,EC90,"dengue virus type 2; Vero C1008, Maximum measured 190.221 %, Minimum measured 63.084 %",> 25 µM
same,EC90,"dengue virus type 2; Vero C1008, Baseline response 0 %, Hill slope -0.424, Maximum measured 89.369 %, Maximum response 100 %, Minimum measured 51.028 %, R squared 0.334",> 25 µM
same,EC90,"Zika virus; Baseline response 0 %, EC90 CI (lower) 1.657 uM, EC90 CI (upper) 9.069 uM, Hill slope 2.736, Maximum measured 134.068 %, Maximum response 100 %, Minimum measured 11.054 %, R squared 0.856",3.88 µM
same,EC50,"Zika virus; Zika virus, Vero C1008",1.54 µM
same,EC90,"Zika virus; Zika virus, Vero C1008, Baseline response 0 %, EC90 CI (lower) 2.457 uM, EC90 CI (upper) 4.2 uM, Hill slope 2.999, Maximum measured 107.773 %, Maximum response 100 %, Minimum measured 2.918 %, R squared 0.982",3.21 µM
same,EC50,Zika virus; vero c1008,1.74 µM
